Assay results: the supplement of paper PMC12463676, “Small-molecule dissolution of stress granules by redox modulation benefits ALS models” (Nature Chemical Biology, 2025)

Experiments:
lipoamide = compound: NC(=O)CCCCC1CCSS1 [lipoamide]; experiment: thermal stability z-score vs DMSO; higher = more thermally stabilized by treatment; conditions: HeLa, lipoamide concentration 100 µM
Method: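 Cellular thermal proteome profiling in HeLa cells. Cells were treated with 100 µM lipoamide for 1 h, with or without 1 mM arsenate for a further 1 h, then heated to ten temperatures (37-66.3 °C), and soluble protein was quantified by TMT mass spectrometry relative to 0.1% DMSO controls. The thermal stability score (sum of log2 fold changes minus the abundance score) was transformed to a z-score; mean of n = 3 experiments.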

potassium arsenate = compound: O=[As]([O-])(O)O.[K+] [potassium arsenate]; experiment: as above; conditions: HeLa; arsenate concentration 1 mM
Method: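 Cellular thermal proteome profiling in HeLa cells treated with 1 mM arsenate for 1 h (DMSO pretreatment), heated to ten temperatures (37-66.3 °C). Soluble protein was quantified by TMT mass spectrometry relative to DMSO controls; the thermal stability score was transformed to a z-score; mean of n = 3 experiments.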

[1] = arsenate co-treatment: 1 mM arsenate 1 h
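Note: each temperature applied for 3 min, abundance score taken as mean log2 fold change at the two lowest temperatures, z-score obtained by mean subtraction and division by SD.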

Sequence of UniProt Q8WX93 (Q8WX93 whole entry): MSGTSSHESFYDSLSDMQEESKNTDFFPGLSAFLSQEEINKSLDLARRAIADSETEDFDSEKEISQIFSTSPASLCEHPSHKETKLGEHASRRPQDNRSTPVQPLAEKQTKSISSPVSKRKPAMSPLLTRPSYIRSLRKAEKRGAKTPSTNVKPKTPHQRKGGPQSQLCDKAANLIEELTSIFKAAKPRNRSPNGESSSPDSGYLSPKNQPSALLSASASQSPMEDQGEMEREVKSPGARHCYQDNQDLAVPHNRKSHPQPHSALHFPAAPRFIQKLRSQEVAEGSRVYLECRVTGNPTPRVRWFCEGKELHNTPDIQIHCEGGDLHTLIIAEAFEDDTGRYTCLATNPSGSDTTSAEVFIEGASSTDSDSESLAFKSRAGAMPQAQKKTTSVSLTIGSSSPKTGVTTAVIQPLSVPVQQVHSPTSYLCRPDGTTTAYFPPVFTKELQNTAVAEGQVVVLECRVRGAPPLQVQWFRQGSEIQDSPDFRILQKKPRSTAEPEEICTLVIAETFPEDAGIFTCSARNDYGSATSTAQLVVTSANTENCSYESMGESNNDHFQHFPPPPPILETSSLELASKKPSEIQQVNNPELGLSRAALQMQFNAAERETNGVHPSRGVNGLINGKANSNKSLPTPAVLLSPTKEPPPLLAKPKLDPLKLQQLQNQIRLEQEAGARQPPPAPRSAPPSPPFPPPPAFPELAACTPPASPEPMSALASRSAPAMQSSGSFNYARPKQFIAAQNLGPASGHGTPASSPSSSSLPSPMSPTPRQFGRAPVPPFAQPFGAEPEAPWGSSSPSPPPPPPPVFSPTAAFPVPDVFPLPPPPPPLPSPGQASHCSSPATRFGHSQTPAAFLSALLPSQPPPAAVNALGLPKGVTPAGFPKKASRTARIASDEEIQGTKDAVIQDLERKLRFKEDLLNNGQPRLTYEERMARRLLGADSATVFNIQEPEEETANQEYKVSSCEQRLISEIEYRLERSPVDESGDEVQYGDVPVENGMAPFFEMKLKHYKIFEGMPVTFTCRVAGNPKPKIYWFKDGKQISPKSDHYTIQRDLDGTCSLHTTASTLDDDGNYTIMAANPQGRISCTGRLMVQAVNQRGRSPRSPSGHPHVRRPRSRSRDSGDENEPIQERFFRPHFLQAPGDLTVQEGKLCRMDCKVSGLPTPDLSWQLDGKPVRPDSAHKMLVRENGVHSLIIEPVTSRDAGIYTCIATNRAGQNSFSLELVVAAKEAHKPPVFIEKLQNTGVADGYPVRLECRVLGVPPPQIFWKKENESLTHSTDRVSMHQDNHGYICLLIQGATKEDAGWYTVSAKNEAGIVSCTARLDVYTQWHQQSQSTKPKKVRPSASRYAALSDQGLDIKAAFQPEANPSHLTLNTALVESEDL
Sequence of UniProt Q9Y6N7 (Q9Y6N7 whole entry): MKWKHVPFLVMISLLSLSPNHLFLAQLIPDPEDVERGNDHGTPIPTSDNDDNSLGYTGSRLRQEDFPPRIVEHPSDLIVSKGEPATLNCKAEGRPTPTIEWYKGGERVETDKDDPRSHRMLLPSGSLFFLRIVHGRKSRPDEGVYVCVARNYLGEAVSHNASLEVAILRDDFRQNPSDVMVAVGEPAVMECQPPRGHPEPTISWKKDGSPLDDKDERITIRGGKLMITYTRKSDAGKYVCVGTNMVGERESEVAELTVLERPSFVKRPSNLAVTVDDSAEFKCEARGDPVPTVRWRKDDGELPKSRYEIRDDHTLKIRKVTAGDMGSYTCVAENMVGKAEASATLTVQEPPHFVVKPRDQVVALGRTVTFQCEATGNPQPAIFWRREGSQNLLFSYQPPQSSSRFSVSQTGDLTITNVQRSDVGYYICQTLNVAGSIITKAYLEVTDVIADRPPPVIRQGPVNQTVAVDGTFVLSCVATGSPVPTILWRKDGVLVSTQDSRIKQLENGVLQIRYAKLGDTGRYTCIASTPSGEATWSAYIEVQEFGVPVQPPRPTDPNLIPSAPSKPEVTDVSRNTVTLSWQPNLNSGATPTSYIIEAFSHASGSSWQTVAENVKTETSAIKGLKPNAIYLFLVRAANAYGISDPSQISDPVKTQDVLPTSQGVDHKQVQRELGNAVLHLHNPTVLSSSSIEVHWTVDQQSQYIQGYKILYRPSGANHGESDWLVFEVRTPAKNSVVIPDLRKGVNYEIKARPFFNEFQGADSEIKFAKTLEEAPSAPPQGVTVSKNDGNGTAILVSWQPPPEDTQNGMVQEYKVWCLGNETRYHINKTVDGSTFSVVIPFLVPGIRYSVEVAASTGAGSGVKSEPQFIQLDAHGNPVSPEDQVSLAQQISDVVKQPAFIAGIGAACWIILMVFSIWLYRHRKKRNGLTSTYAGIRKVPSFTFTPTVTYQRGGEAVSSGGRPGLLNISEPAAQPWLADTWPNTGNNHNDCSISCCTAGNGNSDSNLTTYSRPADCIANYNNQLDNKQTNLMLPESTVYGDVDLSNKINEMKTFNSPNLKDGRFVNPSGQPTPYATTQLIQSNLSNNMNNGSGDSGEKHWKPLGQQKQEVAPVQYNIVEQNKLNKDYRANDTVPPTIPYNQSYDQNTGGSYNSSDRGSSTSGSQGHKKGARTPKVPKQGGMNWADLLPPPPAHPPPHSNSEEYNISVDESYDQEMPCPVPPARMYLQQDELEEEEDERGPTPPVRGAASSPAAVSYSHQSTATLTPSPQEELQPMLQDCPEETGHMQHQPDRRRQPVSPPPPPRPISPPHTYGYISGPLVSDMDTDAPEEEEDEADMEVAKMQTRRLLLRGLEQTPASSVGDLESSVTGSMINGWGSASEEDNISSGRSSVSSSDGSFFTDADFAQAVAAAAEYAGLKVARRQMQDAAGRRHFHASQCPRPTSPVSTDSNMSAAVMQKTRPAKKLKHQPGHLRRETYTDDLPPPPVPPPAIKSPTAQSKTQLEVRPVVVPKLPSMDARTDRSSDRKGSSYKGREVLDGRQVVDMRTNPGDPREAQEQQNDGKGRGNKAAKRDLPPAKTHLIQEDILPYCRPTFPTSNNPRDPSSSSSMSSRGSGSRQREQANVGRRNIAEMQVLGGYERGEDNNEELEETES
Sequence of UniProt P43308 (P43308 whole entry): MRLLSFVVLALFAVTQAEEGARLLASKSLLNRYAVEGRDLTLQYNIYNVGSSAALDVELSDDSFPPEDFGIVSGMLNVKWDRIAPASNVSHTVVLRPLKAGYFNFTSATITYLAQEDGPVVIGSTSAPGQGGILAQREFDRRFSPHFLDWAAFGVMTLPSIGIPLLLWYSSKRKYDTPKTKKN
Sequence of UniProt Q8NBP7 (Q8NBP7 whole entry): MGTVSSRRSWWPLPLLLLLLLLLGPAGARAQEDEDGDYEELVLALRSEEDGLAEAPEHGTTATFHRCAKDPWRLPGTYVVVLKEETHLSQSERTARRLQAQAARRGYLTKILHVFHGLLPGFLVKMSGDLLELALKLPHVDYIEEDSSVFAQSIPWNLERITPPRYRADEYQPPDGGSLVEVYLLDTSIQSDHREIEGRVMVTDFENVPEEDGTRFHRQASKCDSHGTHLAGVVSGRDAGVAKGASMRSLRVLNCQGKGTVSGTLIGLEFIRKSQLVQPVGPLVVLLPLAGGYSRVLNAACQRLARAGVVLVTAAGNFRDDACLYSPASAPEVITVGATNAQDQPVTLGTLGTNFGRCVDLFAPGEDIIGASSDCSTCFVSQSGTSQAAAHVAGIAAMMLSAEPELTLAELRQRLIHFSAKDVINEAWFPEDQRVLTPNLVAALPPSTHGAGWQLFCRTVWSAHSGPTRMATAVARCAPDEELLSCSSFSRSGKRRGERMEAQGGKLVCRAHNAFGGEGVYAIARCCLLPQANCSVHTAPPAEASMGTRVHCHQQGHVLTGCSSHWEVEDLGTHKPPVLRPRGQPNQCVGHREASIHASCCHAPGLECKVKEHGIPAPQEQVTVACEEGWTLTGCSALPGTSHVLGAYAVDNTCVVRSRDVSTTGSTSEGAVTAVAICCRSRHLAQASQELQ
Sequence of UniProt Q92522 (Q92522 whole entry): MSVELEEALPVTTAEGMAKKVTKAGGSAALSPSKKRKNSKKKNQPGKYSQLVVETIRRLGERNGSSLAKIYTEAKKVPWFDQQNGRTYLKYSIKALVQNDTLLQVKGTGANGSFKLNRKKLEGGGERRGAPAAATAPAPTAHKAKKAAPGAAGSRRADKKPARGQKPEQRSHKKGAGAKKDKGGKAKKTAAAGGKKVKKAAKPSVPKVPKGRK
Sequence of UniProt Q8N370 (Q8N370 whole entry, looked up): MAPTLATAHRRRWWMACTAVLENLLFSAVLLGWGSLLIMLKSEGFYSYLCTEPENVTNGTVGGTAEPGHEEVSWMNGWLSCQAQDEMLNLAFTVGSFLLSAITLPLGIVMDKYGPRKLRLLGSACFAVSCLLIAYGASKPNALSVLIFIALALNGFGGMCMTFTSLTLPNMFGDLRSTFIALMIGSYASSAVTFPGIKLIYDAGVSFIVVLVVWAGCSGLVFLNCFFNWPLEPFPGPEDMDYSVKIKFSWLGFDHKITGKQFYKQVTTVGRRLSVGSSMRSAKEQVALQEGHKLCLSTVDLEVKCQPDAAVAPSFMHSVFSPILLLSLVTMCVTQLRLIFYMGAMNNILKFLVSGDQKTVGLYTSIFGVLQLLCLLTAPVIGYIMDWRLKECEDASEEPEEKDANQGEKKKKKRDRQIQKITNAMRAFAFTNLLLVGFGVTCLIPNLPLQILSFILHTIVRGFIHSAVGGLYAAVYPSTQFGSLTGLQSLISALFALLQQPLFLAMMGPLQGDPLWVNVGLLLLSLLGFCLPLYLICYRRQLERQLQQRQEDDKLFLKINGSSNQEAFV
Sequence of UniProt Q86Y82 (Q86Y82 whole entry): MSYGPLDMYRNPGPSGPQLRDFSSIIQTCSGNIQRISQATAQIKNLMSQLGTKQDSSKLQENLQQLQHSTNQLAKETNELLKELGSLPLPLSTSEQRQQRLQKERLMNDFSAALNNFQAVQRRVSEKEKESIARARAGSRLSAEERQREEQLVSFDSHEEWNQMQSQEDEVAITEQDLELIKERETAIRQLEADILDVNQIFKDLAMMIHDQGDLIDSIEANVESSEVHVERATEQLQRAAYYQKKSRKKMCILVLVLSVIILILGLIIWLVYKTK
Sequence of UniProt P56381 (P56381 whole entry): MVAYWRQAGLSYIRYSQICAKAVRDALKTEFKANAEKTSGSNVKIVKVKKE

Row | Target | thermal stability z-score (lipoamide; [1]) | thermal stability z-score (lipoamide; arsenate co-treatment: none) | thermal stability z-score (potassium arsenate)
1 | SNX33 (UniProt Q8WV41) | -0.136 | 0.0586 | -0.148
2 | COPG2 (UniProt Q9UBF2) | -0.16 | -0.253 | 0.0479
3 | PDCL (UniProt Q13371) | 1.05 | 0.207 | -0.321
4 | BCAR1 (UniProt P56945) | -0.559 | -0.583 | -0.154
5 | PTGFRN (UniProt Q9P2B2) | 0.216 | 0.0155 | 0.0412
6 | PALLD (UniProt Q8WX93) | -0.57 | 0.141 | -0.249
7 | HLTF (UniProt Q14527) | -0.245 | -0.0608 | -0.308
8 | CORO1C (UniProt Q9ULV4) | -1.05 | -0.614 | 1.13
9 | RANBP10 (UniProt Q6VN20) | 0.521 | 0.385 | 0.3
10 | ACO1 (UniProt P21399) | 0.259 | -0.252 | -0.945
11 | STX12 (UniProt Q86Y82) | 0.379 | 0.716 | 0.452
12 | LARP7 (UniProt Q4G0J3) | 0.34 | 0.152 | 0.0679
13 | ERI3 (UniProt O43414) | 0.468 | 0.154 | 0.102
14 | HEXA (UniProt P06865) | -0.146 | -0.412 | -0.0764
15 | SLC43A2 (UniProt Q8N370) | 0.846 | 1.05 | -1.03
16 | PCSK9 (UniProt Q8NBP7) | -0.578 | -0.462 | 0.0738
17 | NUP205 (UniProt Q92621) | -0.769 | -0.572 | 1.05
18 | SSR2 (UniProt P43308) | 0.441 | -0.158 | 0.191
19 | NDUFS3 (UniProt O75489) | -0.384 | 0.139 | -0.466
20 | PRKACB (UniProt P22694) | -0.58 | -0.36 | 0.18
21 | PTAR1 (UniProt Q7Z6K3) | 0.548 | 0.408 | 0.1
22 | PSMG2 (UniProt Q969U7) | 0.926 | 0.248 | 2.01
23 | OTUD4 (UniProt Q01804) | 0.168 | 0.183 | 0.258
24 | SH3BP5L (UniProt Q7L8J4) | 0.286 | 0.0604 | 0.227
25 | ID1 (UniProt P41134) | 0.197 | 0.0434 | -0.00372
26 | REEP4 (UniProt Q9H6H4) | -0.55 | -0.227 | 0.579
27 | ATP5A1 (UniProt P25705) | -0.144 | -0.0322 | -0.382
28 | RPS19 (UniProt P39019) | 0.104 | 0.15 | -1.03

Row | Target | thermal stability z-score (lipoamide; [1]) | thermal stability z-score (lipoamide; arsenate co-treatment: none) | thermal stability z-score (potassium arsenate)
29 | PFAS (UniProt O15067) | -0.279 | 0.208 | -1.25
30 | CSF2RA (UniProt P15509) | 0.513 | 0.365 | 0.19
31 | PANK4 (UniProt Q9NVE7) | -0.399 | -0.303 | 0.112
32 | KPNA4 (UniProt O00629) | 0.791 | 0.48 | 0.399
33 | NUP54 (UniProt Q7Z3B4) | 0.342 | 0.00636 | 0.309
34 | ATG7 (UniProt O95352) | -0.324 | 0.291 | 0.16
35 | TSPYL1 (UniProt Q9H0U9) | -0.00828 | -0.153 | 0.0344
36 | H1FX (UniProt Q92522) | -0.468 | -0.893 | -1.7
37 | ZC3HAV1L (UniProt Q96H79) | 0.323 | -0.218 | 0.0902
38 | NANP (UniProt Q8TBE9) | 0.191 | 0.0578 | -0.582
39 | RBM26 (UniProt Q5T8P6) | -0.0221 | 0.172 | -0.536
40 | RNMT (UniProt O43148) | 0.428 | 0.541 | 0.381
41 | ELAVL1 (UniProt Q15717) | -0.0114 | 0.173 | -0.765
42 | ATP5E (UniProt P56381) | 0.582 | 0.508 | 0.00933
43 | HEL | -0.604 | -0.392 | -0.18
44 | GPAA1 (UniProt O43292) | -1.09 | -1.12 | 0.145
45 | PLS3 (UniProt P13797) | 0.368 | 0.603 | -0.117
46 | RBX1 (UniProt P62877) | -0.311 | 0.0681 | 0.163
47 | AK3 (UniProt Q9UIJ7) | -0.869 | -1 | -1.11
48 | CCDC53 (UniProt Q9Y3C0) | -0.425 | -1.22 | -0.495
49 | EIF4A1 (UniProt P60842) | 0.413 | 0.201 | 0.0167
50 | PPIF (UniProt P30405) | 0.26 | 0.29 | 0.0382
51 | ROBO1 (UniProt Q9Y6N7) | 0.154 | 0.0459 | -0.29
52 | CLINT1 (UniProt Q14677) | 0.199 | 0.142 | 1.08
53 | RCN3 (UniProt Q96D15) | -0.715 | -0.986 | -0.0957
54 | USP8 (UniProt P40818) | -0.401 | -0.0464 | 0.561
55 | HPS5 (UniProt Q9UPZ3) | -0.0872 | 0.00734 | -0.219
